Read-outs that look alike come from different tables or passages of the source.
Key:
CVLP-stimulated T cells [1] = assay: Restimulation of CVLP-stimulated T cells, non-HLA-classified donor, 20 mer peptides (γ-interferon FACScan); format: cell-based, human; conditions: for restimulation of CVLP-stimulated T cells (CD4-positive T cells reactive by γ-interferon expression): PBMCs with 10 μg/ml peptide, non-HLA-classified donor, FIG. 5; for Epitop-Information (epitope type): Table 2
Experimental: (§1) The name of the particular peptide with which the PBMCs were loaded is listed from left to right. “None” represents PBMCs which were incubated only with buffer.
(§2) Human T cells (4×10^5) of a non-HLA-classified donor were stimulated with HPV16 L1ΔC·E71-55 CVLPs at 37° C. for 6 weeks with weekly addition of 1 μg/ml CVLPs and 10^5 antigen-presenting cells (irradiated PMBCs), and harvested. The cells were then restimulated in 100 μl of medium at 37° C. with 10 μg/ml of the peptides listed along the X axis of FIG. 5 in the presence of 10 IU/ml IL2. Cells incubated only with buffer served as a negative control.
(§3) After one hour, 1 μl of Monensin (300 μM) was added. The cells were incubated at 37° C. for a further 5 hours. The cells were then fixed and permeabilized, and stained with α-hum CD8/PE, with α-hum CD4/Cychrome and with α-hum γ-interferon/FITC. The cells were examined in a FACScan calibur with respect to their label and the data were analyzed with the aid of Cellquest software.

CVLP-stimulated T cells [2] = assay: Restimulation of CVLP-stimulated T cells, HLA A2.01-positive donor (γ-interferon FACScan); format: cell-based, human; conditions: PBMCs incubated with 10 μg/ml antigen, FIG. 3
Experimental: The content of T cell-specific CD3 for each experiment is listed from left to right and the content of human γ interferon which is specific for activated cells is listed from bottom to top.
Human T cells (4×10^5) of an HLA A2.01-positive donor were stimulated with HPV16 LlΔC·E71-55 CVLPs at 37° C. for 8 weeks with weekly addition of 1 μg/ml CVLPs and 10^5 antigen-presenting cells (irradiated PMBCs), and harvested. The cells were then restimulated in 100 μl of medium at 37° C. with 10 μg/ml various antigens in the presence of 10 IU/ml IL2 and 0.5 μg/ml α-human CD28: • a) with CVLP-incubated PBMCs overnight • b) with L1 2022 peptide-incubated PBMCs overnight • c) with L1 2025 peptide (control peptide)incubated PBMCs overnight
as §3, with “Golgi Plug” for “Monensin (300 μM)”, “CD3/PE,” for “CD8/PE,”

[3] = molecular target: T1, MHC-1 complexes of T2 cells (Homo sapiens, UniProt P04439, I119V/I121R/I166T/I218V/L300P/L318F/N151K/N90K/P208A/P217A/Q86G/Q94H/R138H/R169H/T345S); format: binding; conditions: 0, 10 or 100 μg/ml peptide overnight; BB7.2 antibody, FACS; FIG. 2
T1 construct: The unloaded MHC-1 molecules which are nevertheless present on the cell surface; host or cells: T2 cells

HLA A1 molecules = conditions: Kast et al. (1994) Journal of Immunology 152, 3904-3912, cited from earlier work
CVLP-specific T cells = assay: Peptide-specific TNFα secretion by CVLP-stimulated T cells (WEHI cell/MTT readout); format: cell-based, human; conditions: PMBC + 10 μg/ml peptide, overnight, 10 IU/ml IL-2; HLA A2.01-positive donor; FIG. 1
Text: T cells stimulated by specific, antigen-presenting PBLs release TNFα. This induces apoptosis in WEHI cells so that these cells are no longer able to process MTT into a brownish dye. Low absorption means low dye production and thus many apoptotic cells which had thus been exposed to a lot of TNFα so that the corresponding T cells had been stimulated. Thus, stimulation of T cells improves with decreasing absorption at 595 nm for a particular antigen.
Human T cells (4×10^5) of an HLA A2.01-positive donor were stimulated with HPV16 L1ΔC·E71-55 CVLPs at 37° C. for 8 weeks with weekly addition of 1 μg/ml CVLPs, 10^5 irradiated peripheral blood mononuclear cells (PMBCs) and 10 IU/ml IL-2, and harvested.
The cells were stimulated in 100 μl of medium at 37° C. overnight with different antigens (PMBC+E7 peptide; PMBC+HPV16 L1αC·E71-55 (CVLP); PMBC+5104, 5105, 5106, 5107, 5108, 5109, 5112, 5113, 10 μg/ml each) in the presence of 10 IU/ml IL-2. During this time, stimulated cells produce TNFα.
The following day, 50 μl of supernatant were removed, frozen, thawed again (in order to destroy possibly coremoved cells) and added to 50 μl of a cell suspension containing 0.9×10^6 WEHI cells, 2 μg/ml actinomycin D and 400 mM LiCl. The cells were incubated at 37° C. for 24 h. During this time, TNFα (if present in the supernatant) induces apoptosis of WEHI cells. Addition of 50 μl of a 2.5 mg/ml MTT solution in PBS stained non-apoptotic cells brown within three hours, whereas apoptotic cells remained yellow. All cells were lysed by adding 100 μl of lysis buffer (34% N,N-dimethylformamide, 20% sodium dodecyl sulfate) and incubating at 37° for at least 6 hours so that the dyes were released. Finally, absorption of the solution was measured at 595 nm.
Low absorption means low dye production and thus many apoptotic cells which had thus been exposed to a lot of TNFα so that the corresponding T cells had been stimulated. Thus, T-cell stimulation improved with decreasing absorption at 595 nm.

CVLP-stimulated T cells [4] = assay: Restimulation of CVLP-stimulated T cells, HLA A1-positive donor, 20 mer peptides (γ-interferon FACScan); format: cell-based, human; conditions: for restimulation of CVLP-stimulated T cells (CD8-positive T cells reactive by γ-interferon expression): PBMCs with 10 μg/ml peptide, HLA A1-positive donor, FIG. 4
Experimental: as §1
as §2, with “of an HLA A1-positive” for “of a non-HLA-classified”, “for 5” for “for 6”, “FIG. 4” for “FIG. 5”
as §3

CVLP-stimulated T cells [5] = assay: Restimulation of CVLP-stimulated T cells with peptide pools, HLA A1-positive donor; format: cell-based, human; conditions: common to pools E and 6
Experimental: The name of the particular peptide pool with which the PBMCs were loaded is listed from left to right. “None” represents PBMCs which were incubated only with buffer.
Human T cells (4×10^5) of an HLA A1-positive donor were stimulated with HPV16 L1ΔC·E71-55 CVLPs at 37° C. for 6 weeks with weekly addition of 1 μg/ml CVLPs and 10^5 antigen-presenting cells (irradiated PMBCs), and harvested.
The 20 mer peptides 1 to 51 were combined in peptide pools A to H and 1 to 7 according to the matrix
The T cells of an HLA A1-positive donor were then restimulated in 100 μl of medium at 37° C. with the peptide pools in the presence of 10 IU/ml IL2. In this connection, such amounts of peptide pools were used that for each individual peptide 1 μg/ml was added. Cells incubated only with buffer served as a negative control.
as §3, with “Golgi Plug” for “Monensin (300 μM)”

## SMVTSDAQIFNKPYWLQRAQ [Peptide 28]
CVLP-stimulated T cells [1]
  restimulation of CVLP-stimulated T cells (CD4-positive T cells reactive by γ-interferon expression): effected restimulation of CVLP-stimulated T cells
  Epitop-Information (epitope type): T-helper epitope

## GLQYRVFRI (Human papillomavirus type 16) [Peptide 2025]
CVLP-stimulated T cells [2]
  restimulation of CVLP-stimulated T cells (γ interferon, CD3): not control peptide-incubated PBMCs, effected restimulation

## TLTADVMTYI (Human papillomavirus type 16) [Peptide 2018]
[3]
  MHC molecules on the cell surface of T2 cells (fluorescence), indicating binding to MHC molecules: significantly more MHC molecules on the cell surface

## ETTDLYCY (Human papillomavirus type 16) [peptide contained in peptide 45]
HLA A1 molecules
  binding to HLA A1 molecules: described as HLA A1-binding peptide
HLA A1 molecules; listed as E7 peptide 45
  binding to HLA A1 molecules: can bind to HLA A1 molecules

## ILEDWNFGL (Human papillomavirus type 16) [Peptide 5112]
CVLP-specific T cells
  stimulating CVLP-specific T cells (TNFα secretion, absorption at 595 nm): capable of stimulating CVLP-specific T cells
[3]
  MHC molecules on the cell surface of T2 cells (fluorescence), indicating binding to MHC molecules: significantly more MHC molecules on the cell surface

## PLGRKFLLQAGMHGDTPTLH (Human papillomavirus type 16) [Peptide 43]
CVLP-stimulated T cells [4]
  restimulation of CVLP-stimulated T cells (CD8-positive T cells reactive by γ-interferon expression): effected restimulation of CVLP-stimulated T cells
CVLP-stimulated T cells [4]; Table 2
  Epitop-Information (HLA restriction): HLA A1 restr.
  Epitop-Information (epitope type): cytotoxic epitope

## YLPPVPVSKV (Human papillomavirus type 16) [Peptide 2019]
[3]
  MHC molecules on the cell surface of T2 cells (fluorescence), indicating binding to MHC molecules: significantly more MHC molecules on the cell surface

## ICWGNQLFV (Human papillomavirus type 16) [Peptide 2022]
[3]
  MHC molecules on the cell surface of T2 cells (fluorescence), indicating binding to MHC molecules: significantly more MHC molecules on the cell surface
CVLP-stimulated T cells [2]
  restimulation of CVLP-stimulated T cells (γ interferon, CD3): effected restimulation of CVLP-stimulated T cells

## NLASSNYFPT (Human papillomavirus type 16) [Peptide 2017]
[3]
  MHC molecules on the cell surface of T2 cells (fluorescence), indicating binding to MHC molecules: significantly more MHC molecules on the cell surface

## TLQANKSEV (Human papillomavirus type 16) [Peptide 5109]
CVLP-specific T cells
  stimulating CVLP-specific T cells (TNFα secretion, absorption at 595 nm): capable of stimulating CVLP-specific T cells
[3]
  MHC molecules on the cell surface of T2 cells (fluorescence), indicating binding to MHC molecules: significantly more MHC molecules on the cell surface

## HLFNRAGTV (Human papillomavirus type 16) [Peptide 5107]
CVLP-specific T cells
  stimulating CVLP-specific T cells (TNFα secretion, absorption at 595 nm): capable of stimulating CVLP-specific T cells
[3]
  MHC molecules on the cell surface of T2 cells (fluorescence), indicating binding to MHC molecules: significantly more MHC molecules on the cell surface

## AEPDRAHYNIVTFCCXCDST (AEPDRAHYNIVTFCCKCDST; Human papillomavirus type 16) [Peptide 48]
CVLP-stimulated T cells [4]
  restimulation of CVLP-stimulated T cells (CD8-positive T cells reactive by γ-interferon expression): effected restimulation of CVLP-stimulated T cells

## YDLQFIFQL (Human papillomavirus type 16) [Peptide 2020]
[3]
  MHC molecules on the cell surface of T2 cells (fluorescence), indicating binding to MHC molecules: significantly more MHC molecules on the cell surface

## MHGDTPTLH (Human papillomavirus type 16) [9 mer contained in peptide 43]
HLA A1 molecules
  binding to HLA A1 molecules: described as HLA A1-binding peptides
HLA A1 molecules; listed as E7 peptide 43
  binding to HLA A1 molecules: can bind to HLA A1 molecules

## EEDEIDGPAGQAEPDRAHYN (Human papillomavirus type 16) [Peptide 47]
CVLP-stimulated T cells [4]
  restimulation of CVLP-stimulated T cells (CD8-positive T cells reactive by γ-interferon expression): effected restimulation of CVLP-stimulated T cells

## QAEPDRAHYN (Human papillomavirus type 16) [10 mer contained in overlapping peptides 47 and 48]
HLA A1 molecules
  binding to HLA A1 molecules: described as HLA A1-binding peptides
HLA A1 molecules; listed as E7 peptide 47/48
  binding to HLA A1 molecules: can bind to HLA A1 molecules

## YLRREQMFV (Human papillomavirus type 16) [Peptide 5108]
CVLP-specific T cells
  stimulating CVLP-specific T cells (TNFα secretion, absorption at 595 nm): capable of stimulating CVLP-specific T cells

## MLDLQPETTDLYCYEQLNDS (Human papillomavirus type 16) [Peptide 45]
CVLP-stimulated T cells [5]
  peptide responsible for restimulation, deduced from pool matrix: in all probability responsible for restimulation of CVLP-stimulated T cells

## ILVPKVSGL (Human papillomavirus type 16) [Peptide 5104]
CVLP-specific T cells
  stimulating CVLP-specific T cells (TNFα secretion, absorption at 595 nm): capable of stimulating CVLP-specific T cells

## ASSNYFPTPSGSMVTSDAQI [Peptide 27]
CVLP-stimulated T cells [1]
  restimulation of CVLP-stimulated T cells (CD4-positive T cells reactive by γ-interferon expression): effected restimulation of CVLP-stimulated T cells
  Epitop-Information (epitope type): T-helper epitope

## RLVWACVGV (Human papillomavirus type 16) [Peptide 5106]
CVLP-specific T cells
  stimulating CVLP-specific T cells (TNFα secretion, absorption at 595 nm): capable of stimulating CVLP-specific T cells
[3]
  MHC molecules on the cell surface of T2 cells (fluorescence), indicating binding to MHC molecules: significantly more MHC molecules on the cell surface

## SLWLPSEATVYL [Peptide 2016]
[3]
  MHC molecules on the cell surface of T2 cells (fluorescence), indicating binding to MHC molecules: significantly more MHC molecules on the cell surface

Source: patent US6838084B1, “Cytotoxic T-cell epitopes of the papilloma virus l1-protein and use thereof in diagnosis and therapy” (priority 1999, dated 2005)
